Data published in patent US20250281483A1, “TRANSCRIPTION FACTOR EB ACTIVATORS AND USES THEREOF” (Astellas Engineered Small Molecules US, Incorporated, priority 2022, published 2025).

Assays:
[1] = target: T1, TFEB (Homo sapiens, UniProt P19484); assay: Tfeb-Translocation Assay HEK-293T-oEX-Tfeb-GFP Cell Line; type: cell-based; conditions: HEK-293T-oEX-TFEB-GFP cells; translocation positive cells ratio; read-out: TFEB Translocation EC50
T1 sequence (P19484 1-476): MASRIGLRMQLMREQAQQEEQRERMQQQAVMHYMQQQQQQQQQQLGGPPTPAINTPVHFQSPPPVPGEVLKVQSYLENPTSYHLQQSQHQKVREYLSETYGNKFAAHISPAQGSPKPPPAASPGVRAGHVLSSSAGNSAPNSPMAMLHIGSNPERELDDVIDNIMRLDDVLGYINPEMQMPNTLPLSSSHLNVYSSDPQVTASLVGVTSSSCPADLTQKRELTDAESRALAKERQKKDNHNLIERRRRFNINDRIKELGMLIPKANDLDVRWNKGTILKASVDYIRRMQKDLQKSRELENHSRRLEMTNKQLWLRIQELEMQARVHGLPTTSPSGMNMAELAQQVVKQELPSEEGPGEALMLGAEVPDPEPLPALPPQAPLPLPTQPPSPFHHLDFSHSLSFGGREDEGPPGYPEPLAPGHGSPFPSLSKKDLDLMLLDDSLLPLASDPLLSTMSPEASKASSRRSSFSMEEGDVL
In short: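 HEK-293T cells overexpressing Tfeb-GFP were treated for 6 or 18 h at 37 °C with 10-point 3- or 2-fold dilutions from 50 µM (Torin 1 reference from 300 nM), then PFA-fixed and Hoechst-stained. Cells with nuclear/perinuclear EGFP ratio 1.2 among EGFP-positive cells were scored as translocation-positive; DMSO set to ~15% for normalization.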

[2] = In Vitro Liver Microsomes Metabolic Stability Assay, human; type: in vitro ADME; conditions: human liver microsomes 0.5 mg/mL, 1 μM compound, NADPH, 0 and 30 min; scale-up CLint; read-out: CLint, Human LM
Procedure: (§1) In Vitro Liver Microsomes Metabolic Stability Assay of Different Species
(§2) 1. The liver microsomes were stored at −80° C. prior to use.
(§3) 2. The master solution was prepared according to Table 3.
(§4) 3. 40 μL of 10 mM NADPH solution was added to each well. The final concentrations of NADPH was 1 mM. The mixture was pre-warmed at 37° C. for 5 minutes. The negative control samples were prepared by replacing NADPH solutions with 40 μL of ultra-pure H2O. The negative control was used to exclude the misleading factor that resulted from instability of chemical itself. Samples with NADPH were prepared in duplicate. Negative controls were prepared in singlet.
(§5) 4. The reaction was started with the addition of 2 μL of 200 μM control compound or test compound solutions. Verapamil was used as positive control in this study. The final concentration of test compound or control compound was 1 μM.
(§6) 5. Aliquots of 50 μL were taken from the reaction solution at 0 and 30 minutes. The reaction was stopped by the addition of 4 volumes of cold acetonitrile with Internal Standard (100 nM alprazolam, 200 nM imipramine, 200 nM labetalol and 2 μM ketoprofen). Samples were centrifuged at 3, 220 g for 40 minutes. Aliquot of 90 μL of the supernatant was mixed with 90 μL of ultra-pure H2O and then used for LC-MS/MS analysis.
(§7) Peak areas were determined from extracted ion chromatograms. The slope value, k, was determined by linear regression of the natural logarithm of the remaining percentage of the parent drug vs. incubation time curve.
(§8) The in vitro half-life (in vitro t1/2) was determined from the slope value:
(§9) Conversion of the in vitro t1/2 (min) into the in vitro intrinsic clearance (in vitro CLint, in μL/min/mg protein) was done using the following equation (mean of duplicate determinations): […]
(§10) Conversion of the in vitro t1/2 (min) into the scale-up unbound intrinsic clearance (Scale-up CLint, in mL/min/kg) was done using the following equation (mean of duplicate determinations): […]

[3] = In Vitro Liver Microsomes Metabolic Stability Assay, rat; type: in vitro ADME; conditions: rat liver microsomes 0.5 mg/mL, 1 μM compound, NADPH, 0 and 30 min; scale-up CLint; read-out: CLint, Rat LM
Procedure: as §1, §2, §3, §4, §5, §6, §7, §8, §9, §10

[4] = In Vitro Liver Microsomes Metabolic Stability Assay, mouse; type: in vitro ADME; conditions: mouse liver microsomes 0.5 mg/mL, 1 μM compound, NADPH, 0 and 30 min; scale-up CLint; read-out: CLint, Mouse LM
Procedure: as §1, §2, §3, §4, §5, §6, §7, §8, §9, §10

| Compound | EC50 [1] [nM] | CLint scaled at 1 μM [2] [mL/min/kg] | CLint scaled at 1 μM [3] [mL/min/kg] | CLint scaled at 1 μM [4] [mL/min/kg] |
| --- | --- | --- | --- | --- |
| Cc1ccc(CNC(=O)c2cc3c(=O)n(Cc4ccccc4)ccc3nc2C)o1 [Example 1, 6-benzyl-2-methyl-N-((5-methylfuran-2-yl)methyl)-5-oxo-5,6-dihydro-1,6-naphthyridine-3-carboxamide] | < 100 | 57 | 319 | 760 |
| Cc1cccc(CNC(=O)c2cc3c(=O)n(Cc4ccccc4)ccc3nc2C)n1 [Example 6, 6-benzyl-2-methyl-N-((6-methylpyridin-2-yl)methyl)-5-oxo-5,6-dihydro-1,6-naphthyridine-3-carboxamide] | 100 to 1000 | 16 | 217 | 414 |
| Cc1nc2ccn(Cc3ccccc3)c(=O)c2cc1C(=O)NCc1ccccn1 [Example 7, 6-benzyl-2-methyl-5-oxo-N-(pyridin-2-ylmethyl)-5,6-dihydro-1,6-naphthyridine-3-carboxamide] | 100 to 1000 | 2 | 28 | 91 |

Further lines, results first:

| EC50 [1] [nM] | CLint scaled at 1 μM [2] [mL/min/kg] | CLint scaled at 1 μM [3] [mL/min/kg] | CLint scaled at 1 μM [4] [mL/min/kg] | Compound |
| --- | --- | --- | --- | --- |
| 100 to 1000 | 4 | 73 | 140 | Cc1nc(CNC(=O)c2cc3c(=O)n(Cc4ccccc4)ccc3nc2C)co1 [Example 18, 6-benzyl-2-methyl-N-((2-methyloxazol-4-yl)methyl)-5-oxo-5,6-dihydro-1,6-naphthyridine-3-carboxamide] |
| 100 to 1000 | 171 | 1040 | 1800 | Cc1cccc(CNC(=O)c2cc3c(=O)n(Cc4ccccc4)ccc3nc2C)c1 [Example 5, 6-benzyl-2-methyl-N-(3-methylbenzyl)-5-oxo-5,6-dihydro-1,6-naphthyridine-3-carboxamide] |
| < 100 | 3 | 70 | 124 | Cc1nc2ccn(Cc3ccccc3)c(=O)c2cc1C(=O)NCc1cc(F)c(F)cn1 [Example 50, 6-benzyl-N-((4,5-difluoropyridin-2-yl)methyl)-2-methyl-5-oxo-5,6-dihydro-1,6-naphthyridine-3-carboxamide] |
